Columns and labels:
Assay type in all cases: in vivo, rat
[1] = system: TNF-α and IL-10 in peripheral blood; experiment: ELISA of cytokines in peripheral blood in spinal cord injury model; settings: 5 nmol/kg tail vein; serum at 1 hour, 6 hours, 1 day, 3 days, 5 days; vs control
Experimental: For the present experiment, male white mice (Sprague-Dawley 240-250 g, 7 weeks, 10 mice) were under general anesthetics by an intraperitoneal injection of Ketamin (80 mg/kg, Yuhan Corporation) and Rompun (7.4 mg/kg, Bayer Korea Corporation). Laminectomy was performed at spine T9-10 level to expose a spinal cord keeping intact dura. And then, rat was put on Spinal cord dropping device (NYU); spine processes at T8 and T11 sites were fixed by using a clamp, respectively; then, a rod (diameter 2 mm, weight 10 g) was dropped from 25 mm height vertical to dorsal part of spinal cord followed by suturing injury site muscle and skin. The rat of Sham-operated control group was performed only laminectomy at same area without damaging spinal cord injury (marked by ‘sham” in figures; hereinafter, the same as above). […]
At immediately, 1 d, 2 ds, in order to investigate an effect of Substance P in cytokine in a peripheral blood, Substance P (5 nmol/kg in saline) or saline (the same volume without Substance P) was injected through tail vein, respectively using the same method as (1) of Example 1. […] Finally, The levels of TNF-α and IL-10 were measured by using ELISA kit (R&D Systems).

[2] = system: spinal cord injury site tissue; experiment: Immunofluorescence staining of CSPG, CD206, GFAP, NF200 after spinal cord injury; settings: tail vein injection
Experimental: (§1) For the present experiment, male white mice (Sprague-Dawley 240-250 g, 7 weeks, 10 mice) were under general anesthetics by an intraperitoneal injection of Ketamin (80 mg/kg, Yuhan Corporation) and Rompun (7.4 mg/kg, Bayer Korea Corporation). Laminectomy was performed at spine T9-10 level to expose a spinal cord keeping intact dura. And then, rat was put on Spinal cord dropping device (NYU); spine processes at T8 and T11 sites were fixed by using a clamp, respectively; then, a rod (diameter 2 mm, weight 10 g) was dropped from 25 mm height vertical to dorsal part of spinal cord followed by suturing injury site muscle and skin. The rat of Sham-operated control group was performed only laminectomy at same area without damaging spinal cord injury (marked by ‘sham” in figures; hereinafter, the same as above).
(§2) Substance P (marked by ‘SP’ in figures; hereinafter, the same as above) dissolved in saline of 5 nmol/kg concentration was injected through tail vein at immediately, 24 hours, and 48 hours after a spinal cord injury for experimental groups. At sham control group, same volume of saline (marked by ‘vehicle’ in figures; hereinafter, the same as above) without Substance P was injected at same time points. Operation were performed on an electric heating pad of 37° C., and then rat were transferred to cage after awake from the anesthetic. • (2) Preparation of Tissue
Then, perfusion was performed by opening the of heart and pumping 200 ml of a physiological saline and 4% paraformaldehyde (Sigma) through right atrium of heart. Then, a segment of spinal cord with injury site was removed and put in 4% paraformaldehyde at 4° C. for 6 hours. Subsequently, spinal cords were washed with saline, and placed in 30% sucrose (Sigma) solution at 4° C. overnight. Next day, spinal cords were cut in a length of 1.5 cm in which the injured site is localized in epicenter followed by embedding in OCT compound (optimal cutting temperature compound, Sakura). The fixed tissues were cut in a thickness of 10 μm (Longitudinal section) or 20 μm (cross section) with Cryostat (Leica) and attached to slide. Finally, slides were stored at −80° C. • (3) Immunofluorescence Staining
The selected sections for immunofluorescence staining were washed with saline for three times, and blocked with 10% horse serum (Jackson ImmunoResearch) for 1 hour at a room temperature. ED1 antibody (1:200, Milipore), a marker for activated microglia/macrophage, was treated and placed at 4° C. overnight. Next day, slides were washed with saline, and treated with a secondary antibody conjugated with Alexa Fluor 488 (1:400, Invitrogen) or cyanine 3 (1:500, Jackson ImmunoResearch) for 1 hour at room temperature. […]

[3] = system: myelin sheath of nerve cell; experiment: Immunofluorescence staining of myelin base protein (MBP) after spinal cord injury
Experimental: as §1
as §2, with “Tissue […]” for “Tissue”

[4] = two weeks after spinal cord injury

Substance: Substance P
- level of IL-10 in peripheral blood [1]: no meaningful differences
- level of TNF-α in peripheral blood [1]: no meaningful differences
- GFAP-positive cells distribution ([2]; after spinal cord injury): excluded from CD206-positive spinal cord injury site
- CD206 and ED1 double-positive cells [2, 4]: gathered around an injury site
- CSPG-positive signal around an injury site [2, 4]: significantly decreased
- neurofilament protein ([2]; vs control, exposed to CD206-positive cell field): well preserved
- inhibition of tissue lose ([3]; at 2 mm rostal and caudal from the center): at least 50%
- MBP-positive sheath ([3]; tail vein injection, after spinal cord injury): well preserved

— patent US9078851B2, “Composition for preventing or treating a spinal cord injury” (UNIVERSITY-INDUSTRY COOPERATION GROUP OF KYUNG HEE, priority 2009, dated 2015)
